Measured values from PubChem BioAssay (NCI).
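Growth conditions: 96-well plates. Treatment: test compound, 48 hours, 5 concentrations. Analysis: linear interpolation between bracketing concentrations; unreached endpoints set to highest concentration. TGI marks complete inhibition of growth.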

What was measured:
Assay in all cases: inhibition of tumour cell growth, NCI panel, 48 h
TK-10 renal = system: TK-10 renal
NCI-H23 lung = system: NCI-H23 lung
SN12C renal = system: SN12C renal
SF-295 CNS = system: SF-295 CNS
ACHN renal = system: ACHN renal
NCI-H460 lung = system: NCI-H460 lung
HCT-15 colon = system: HCT-15 colon
NCI-H522 lung = system: NCI-H522 lung
SK-MEL-5 melanoma = system: SK-MEL-5 melanoma
OVCAR-5 ovarian = system: OVCAR-5 ovarian
RXF-631 renal = system: RXF-631 renal
A498 renal = system: A498 renal
SR leukemia = system: SR leukemia
SNB-19 CNS = system: SNB-19 CNS
M19-MEL melanoma = system: M19-MEL melanoma
K-562 leukemia = system: K-562 leukemia
KM20L2 colon = system: KM20L2 colon
HOP-92 NSCLC = system: HOP-92 NSCLC
SK-OV-3 ovarian = system: SK-OV-3 ovarian
LOX IMVI melanoma = system: LOX IMVI melanoma
UACC-257 melanoma = system: UACC-257 melanoma
SNB-75 CNS = system: SNB-75 CNS
COLO 205 colon = system: COLO 205 colon
SF-539 CNS = system: SF-539 CNS
U251 CNS = system: U251 CNS
KM12 colon = system: KM12 colon
SK-MEL-2 melanoma = system: SK-MEL-2 melanoma
HT29 colon = system: HT29 colon
CAKI-1 renal = system: CAKI-1 renal
MALME-3M melanoma = system: MALME-3M melanoma
IGROV1 ovarian = system: IGROV1 ovarian
SK-MEL-28 melanoma = system: SK-MEL-28 melanoma
SW-620 colon = system: SW-620 colon
M14 melanoma = system: M14 melanoma
MOLT-4 leukemia = system: MOLT-4 leukemia
HOP-62 NSCLC = system: HOP-62 NSCLC
UO-31 renal = system: UO-31 renal
DMS 273 small cell lung = system: DMS 273 small cell lung
RPMI-8226 leukemia = system: RPMI-8226 leukemia
CCRF-CEM leukemia = system: CCRF-CEM leukemia
DLD-1 colon = system: DLD-1 colon
OVCAR-8 ovarian = system: OVCAR-8 ovarian
OVCAR-3 ovarian = system: OVCAR-3 ovarian
HCT-116 colon = system: HCT-116 colon
LXFL 529 NSCLC = system: LXFL 529 NSCLC
SNB-78 CNS = system: SNB-78 CNS
EKVX NSCLC = system: EKVX NSCLC
RXF 393 renal = system: RXF 393 renal
A549 NSCLC = system: A549 NSCLC
HOP-18 NSCLC = system: HOP-18 NSCLC
DMS 114 small cell lung = system: DMS 114 small cell lung
786-0 renal = system: 786-0 renal
HL-60(TB) leukemia = system: HL-60(TB) leukemia
SF-268 CNS = system: SF-268 CNS
UACC-62 melanoma = system: UACC-62 melanoma
HCC-2998 colon = system: HCC-2998 colon
OVCAR-4 ovarian = system: OVCAR-4 ovarian
NCI-H226 lung = system: NCI-H226 lung

Work on CN(C)[C@@H]1C(=O)C(C(=O)NCN2CCN(C(=N)N=C(N)N)CC2)=C(O)[C@@]2(O)C(=O)C3=C(O)c4c(O)cccc4[C@@](C)(O)[C@H]3C[C@@H]12 yielded a TGI (TK-10 renal) of 14.8 µM, a TGI (NCI-H23 lung) of 0.33 µM and a TGI (SN12C renal) of 15.1 µM. The TGI (SF-295 CNS) was 6.82 µM, the TGI (ACHN renal) was over 100 µM and the TGI (NCI-H460 lung) was 20.2 µM. The TGI (HCT-15 colon) was 12.2 µM, the TGI (NCI-H522 lung) was 0.143 µM and the TGI (SK-MEL-5 melanoma) was 0.431 µM. It also gave a TGI (OVCAR-5 ovarian) of 0.709 µM, a TGI (RXF-631 renal) of 0.763 µM and a TGI (A498 renal) of 4.88 µM. For the same compound, the TGI (SR leukemia) was 2.3 µM, the TGI (SNB-19 CNS) was 15.9 µM and the TGI (M19-MEL melanoma) was 2.28 µM. It also gave a TGI (K-562 leukemia) of 10.5 µM, a TGI (KM20L2 colon) of 11.6 µM and a TGI (HOP-92 NSCLC) of 0.635 µM. The TGI (SK-OV-3 ovarian) was 15.8 µM, the TGI (LOX IMVI melanoma) was 2.04 µM and the TGI (UACC-257 melanoma) was 6.29 µM. The TGI (SNB-75 CNS) was 0.338 µM, the TGI (COLO 205 colon) was 14.1 µM and the TGI (SF-539 CNS) was 0.415 µM. The TGI (U251 CNS) was 0.809 µM, the TGI (KM12 colon) was 16.9 µM and the TGI (SK-MEL-2 melanoma) was 0.255 µM. It also gave a TGI (HT29 colon) of 16.7 µM, a TGI (CAKI-1 renal) of over 100 µM and a TGI (MALME-3M melanoma) of 0.566 µM. The TGI (IGROV1 ovarian) was 22 µM, the TGI (SK-MEL-28 melanoma) was 0.541 µM and the TGI (SW-620 colon) was 11 µM. The TGI (M14 melanoma) was 1.14 µM, the TGI (MOLT-4 leukemia) was 0.349 µM and the TGI (HOP-62 NSCLC) was 3.99 µM. The TGI (UO-31 renal) was 0.982 µM, the TGI (DMS 273 small cell lung) was 0.922 µM and the TGI (RPMI-8226 leukemia) was 14.7 µM. It also gave a TGI (CCRF-CEM leukemia) of over 100 µM, a TGI (DLD-1 colon) of 19.6 µM and a TGI (OVCAR-8 ovarian) of 11.2 µM. For the same compound, the TGI (OVCAR-3 ovarian) was 34.8 µM, the TGI (HCT-116 colon) was 17.8 µM and the TGI (LXFL 529 NSCLC) was 11.1 µM. The TGI (SNB-78 CNS) was 0.471 µM, the TGI (EKVX NSCLC) was 0.624 µM and the TGI (RXF 393 renal) was 0.245 µM.
Compound COc1ccc(/C=C/C(=O)c2sc(Nc3ccc([N+](=O)[O-])cc3)nc2C)cc1 has a TGI (TK-10 renal) of over 100 µM, a TGI (NCI-H23 lung) of 85 µM and a TGI (SN12C renal) of over 100 µM. For the same compound, the TGI (SF-295 CNS) was 81.5 µM, the TGI (ACHN renal) was over 100 µM and the TGI (A549 NSCLC) was over 100 µM. For the same compound, the TGI (NCI-H460 lung) was over 100 µM, the TGI (HCT-15 colon) was over 100 µM and the TGI (NCI-H522 lung) was 51.1 µM. It also gave a TGI (SK-MEL-5 melanoma) of 46.8 µM, a TGI (OVCAR-5 ovarian) of over 100 µM and a TGI (RXF-631 renal) of over 100 µM. The TGI (HOP-18 NSCLC) was over 100 µM, the TGI (DMS 114 small cell lung) was over 100 µM and the TGI (A498 renal) was over 100 µM. It also gave a TGI (SNB-19 CNS) of over 100 µM, a TGI (M19-MEL melanoma) of over 100 µM and a TGI (K-562 leukemia) of 93.6 µM. The TGI (KM20L2 colon) was over 100 µM, the TGI (HOP-92 NSCLC) was 81.5 µM and the TGI (SK-OV-3 ovarian) was over 100 µM. The TGI (LOX IMVI melanoma) was over 100 µM, the TGI (SNB-75 CNS) was over 100 µM and the TGI (COLO 205 colon) was over 100 µM. For the same compound, the TGI (SF-539 CNS) was over 100 µM, the TGI (786-0 renal) was over 100 µM and the TGI (HL-60(TB) leukemia) was 67.6 µM. It also gave a TGI (SF-268 CNS) of over 100 µM, a TGI (U251 CNS) of over 100 µM and a TGI (KM12 colon) of over 100 µM. The TGI (SK-MEL-2 melanoma) was 48.6 µM, the TGI (CAKI-1 renal) was over 100 µM and the TGI (MALME-3M melanoma) was over 100 µM. The TGI (IGROV1 ovarian) was over 100 µM, the TGI (SK-MEL-28 melanoma) was over 100 µM and the TGI (SW-620 colon) was over 100 µM. The TGI (MOLT-4 leukemia) was 50.7 µM, the TGI (UACC-62 melanoma) was over 100 µM and the TGI (HOP-62 NSCLC) was over 100 µM. The TGI (UO-31 renal) was 91.9 µM, the TGI (DMS 273 small cell lung) was over 100 µM and the TGI (RPMI-8226 leukemia) was 47.9 µM. It also gave a TGI (CCRF-CEM leukemia) of 82 µM, a TGI (DLD-1 colon) of over 100 µM and a TGI (OVCAR-8 ovarian) of over 100 µM. For the same compound, the TGI (HCC-2998 colon) was 83.5 µM, the TGI (OVCAR-3 ovarian) was 89.4 µM and the TGI (SNB-78 CNS) was over 100 µM. The TGI (EKVX NSCLC) was over 100 µM and the TGI (RXF 393 renal) was 87.9 µM.
Compound O=C1c2ccccc2C(=O)c2nc3c(O)cccc3cc21 has a TGI (TK-10 renal) of over 100 µM, a TGI (NCI-H23 lung) of over 100 µM and a TGI (SN12C renal) of over 100 µM. For the same compound, the TGI (SF-295 CNS) was 74.1 µM, the TGI (ACHN renal) was over 100 µM and the TGI (A549 NSCLC) was over 100 µM. The TGI (NCI-H460 lung) was over 100 µM, the TGI (HCT-15 colon) was over 100 µM and the TGI (NCI-H522 lung) was 72.2 µM. The TGI (SK-MEL-5 melanoma) was 18.5 µM, the TGI (OVCAR-5 ovarian) was over 100 µM and the TGI (RXF-631 renal) was over 100 µM. It also gave a TGI (OVCAR-4 ovarian) of over 100 µM, a TGI (HOP-18 NSCLC) of over 100 µM and a TGI (DMS 114 small cell lung) of 20.7 µM. The TGI (A498 renal) was 64.2 µM, the TGI (SR leukemia) was over 100 µM and the TGI (SNB-19 CNS) was over 100 µM. For the same compound, the TGI (K-562 leukemia) was over 100 µM, the TGI (KM20L2 colon) was over 100 µM and the TGI (LOX IMVI melanoma) was over 100 µM. It also gave a TGI (UACC-257 melanoma) of 32.4 µM, a TGI (SNB-75 CNS) of over 100 µM and a TGI (COLO 205 colon) of over 100 µM. It also gave a TGI (SF-539 CNS) of over 100 µM, a TGI (786-0 renal) of over 100 µM and a TGI (SF-268 CNS) of over 100 µM. For the same compound, the TGI (U251 CNS) was over 100 µM, the TGI (KM12 colon) was over 100 µM and the TGI (SK-MEL-2 melanoma) was over 100 µM. For the same compound, the TGI (HT29 colon) was 52.9 µM, the TGI (CAKI-1 renal) was over 100 µM and the TGI (MALME-3M melanoma) was over 100 µM. The TGI (IGROV1 ovarian) was over 100 µM, the TGI (SK-MEL-28 melanoma) was over 100 µM and the TGI (SW-620 colon) was over 100 µM. For the same compound, the TGI (M14 melanoma) was 27.9 µM, the TGI (MOLT-4 leukemia) was 23 µM and the TGI (UACC-62 melanoma) was over 100 µM. It also gave a TGI (HOP-62 NSCLC) of over 100 µM, a TGI (UO-31 renal) of over 100 µM and a TGI (DMS 273 small cell lung) of over 100 µM. It also gave a TGI (RPMI-8226 leukemia) of over 100 µM, a TGI (NCI-H226 lung) of over 100 µM and a TGI (DLD-1 colon) of over 100 µM. It also gave a TGI (OVCAR-8 ovarian) of over 100 µM, a TGI (HCC-2998 colon) of over 100 µM and a TGI (OVCAR-3 ovarian) of 4.98 µM. It also gave a TGI (HCT-116 colon) of 19.4 µM, a TGI (LXFL 529 NSCLC) of over 100 µM and a TGI (EKVX NSCLC) of over 100 µM. The TGI (RXF 393 renal) was over 100 µM.
